{"source": "patent US10017506B2", "about": "“ATX modulating agents” (BIOGEN MA INC., priority 2012, dated 2018)", "data": [{"biological_target": "T1, Human ATX protein (Homo sapiens, UniProt Q13822)", "T1 construct": "made in house", "assay": "ATX biochemical FRET assay with FS-3 substrate", "conditions": "FRET substrate FS-3 2 μM, ATX 1.0 μg/mL, 30 minutes pre-incubation, 2 hours at room temperature; read-out: IC50", "summary_of_the_method": "(§1)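 Enzyme at 1.0 μg/mL final, pre-incubated with compound (10-point, 3-fold series) for 30 min at RT in Tris pH 7.4 buffer with NaCl, KCl, CaCl2, MgCl2 and 1 mg/mL fatty-acid-free BSA. After FS-3 addition, 2 h at RT protected from light; fluorescence at 485/538 nm.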", "units": {"IC50": "µM"}, "values": [{"compound": "CC(c1ccc2ccc(O[C@H]3CC[C@@H](C)CC3)c(C(F)(F)F)c2c1)N1CCC(C(=O)O)CC1", "note": "(stereo partly drawn) [Example 80, 1-(1-(7-((cis-4-methylcyclohexyl)oxy)-8-(trifluoromethyl)naphthalen-2-yl)ethyl)piperidine-4-carboxylic acid]", "IC50": "≤ 0.25"}, {"compound": "C[C@H](N[C@H]1C[C@@H](C(=O)O)C1(C)C)c1ccc2ccc(O[C@H]3CC[C@@H](C)CC3)c(C(F)(F)F)c2c1", "note": "[Example 114b, (1R,3S)-2,2-dimethyl-3-(((S)-1-(7-((cis-4-methylcyclohexyl)oxy)-8-(trifluoromethyl)naphthalen-2-yl)ethyl)amino)cyclobutanecarboxylic acid]", "IC50": "≤ 0.1"}, {"compound": "CC(N[C@H]1CC[C@@H](C(=O)O)CC1)c1ccc2ccc(O[C@H]3CC[C@@H](C(F)(F)F)CC3)c(C(F)(F)F)c2c1", "note": "(stereo partly drawn) [Example 129, cis-4-((1-(8-(trifluoromethyl)-7-((cis-4-(trifluoromethyl)cyclohexyl)oxy)naphthalen-2-yl)ethyl)amino)cyclohexanecarboxylic acid]", "IC50": "≤ 0.1"}, {"compound": "CC[C@H]1CC[C@@H](Oc2ccc3ccc(C(C)N[C@H]4CC[C@@H](C(=O)O)CC4)cc3c2C(F)(F)F)CC1", "note": "(stereo partly drawn) [Example 134, cis-4-((1-(7-((cis-4-ethylcyclohexyl)oxy)-8-(trifluoromethyl)naphthalen-2-yl)ethyl)amino)cyclohexanecarboxylic acid]", "IC50": "≤ 0.1"}, {"compound": "CC[C@H]1CC[C@@H](Oc2ccc3ccc(C(C)N[C@H]4C[C@@H](C(=O)O)C4(C)C)cc3c2Cl)CC1", "note": "(stereo partly drawn) [Example 67, (1R,3S)-3-((1-(8-chloro-7-((cis-4-ethylcyclohexyl)oxy)naphthalen-2-yl)ethyl)amino)-2,2-dimethylcyclobutanecarboxylic acid]", "IC50": "≤ 0.25"}, {"compound": "CC(c1ccc2ccc(O[C@H]3CC[C@@H](C(F)(F)F)CC3)c(C(F)(F)F)c2c1)N1CCC(C(=O)O)CC1", "note": "(stereo partly drawn) [Example 44, 1-(1-(8-(trifluoromethyl)-7-((cis-4-(trifluoromethyl)cyclohexyl)oxy)naphthalen-2-yl)ethyl)piperidine-4-carboxylic acid]", "IC50": "≤ 0.1"}, {"compound": "CCC(N[C@H]1C[C@@H](C(=O)O)C1(C)C)c1ccc2ccc(O[C@H]3CC[C@@H](C(F)(F)F)CC3)c(Cl)c2c1", "note": "(stereo partly drawn) [Example 32, (1R,3S)-3-((1-(8-chloro-7-((cis-4-(trifluoromethyl)cyclohexyl)oxy)naphthalen-2-yl)propyl)amino)-2,2-dimethylcyclobutanecarboxylic acid]", "IC50": "≤ 0.5"}, {"compound": "O=C(O)C1CCC(NCc2ccc3ccc(O[C@H]4CC[C@@H](C(F)(F)F)CC4)c(C(F)(F)F)c3c2)C1", "note": "(stereo partly drawn) [Example 127, 3-(((8-(trifluoromethyl)-7-((cis-4-(trifluoromethyl)cyclohexyl)oxy)naphthalen-2-yl)methyl)amino)cyclopentanecarboxylic acid]", "IC50": "≤ 0.5"}, {"compound": "CC[C@H]1CC[C@@H](Oc2ccc3ccc(C(C)NC4CCC(C(=O)O)C4)cc3c2C(F)(F)F)CC1", "note": "(stereo partly drawn) [Example 131, 3-((1-(7-((cis-4-ethylcyclohexyl)oxy)-8-(trifluoromethyl)naphthalen-2-yl)ethyl)amino)cyclopentanecarboxylic acid]", "IC50": "≤ 0.1"}, {"compound": "CC(N[C@H]1CC[C@@H](C(=O)O)CC1)c1ccc2ccc(O[C@H]3CC[C@@H](C)CC3)c(C(F)(F)F)c2c1", "note": "(stereo partly drawn) [Example 142, cis-4-((1-(7-((cis-4-methylcyclohexyl)oxy)-8-(trifluoromethyl)naphthalen-2-yl)ethyl)amino)cyclohexanecarboxylic acid]", "IC50": "≤ 0.1"}, {"compound": "CC[C@H]1CC[C@@H](Oc2ccc3ccc([C@H](C)N[C@@H]4C[C@H](C(=O)O)C4(C)C)cc3c2C(F)(F)F)CC1", "note": "[Example 117b, (1S,3R)-3-(((S)-1-(7-((cis-4-ethylcyclohexyl)oxy)-8-(trifluoromethyl)naphthalen-2-yl)ethyl)amino)-2,2-dimethylcyclobutanecarboxylic acid]", "IC50": "≤ 0.1"}, {"compound": "C[C@H](N[C@@H]1C[C@H](C(=O)O)C1(C)C)c1ccc2ccc(O[C@H]3CC[C@@H](C(F)(F)F)CC3)c(C(F)(F)F)c2c1", "note": "[Example 121b, (1S,3R)-2,2-dimethyl-3-(((S)-1-(8-(trifluoromethyl)-7-((cis-4-(trifluoromethyl)cyclohexyl)oxy)naphthalen-2-yl)ethyl)amino)cyclobutanecarboxylic acid]", "IC50": "≤ 0.1"}, {"compound": "CC[C@H]1CC[C@@H](Oc2ccc3ccc(CNC4CC(C(=O)O)C4(C)C)cc3c2C(F)(F)F)CC1", "note": "(stereo partly drawn) [Example 54, 3-(((7-((cis-4-ethylcyclohexyl)oxy)-8-(trifluoromethyl)naphthalen-2-yl)methyl)amino)-2,2-dimethylcyclobutanecarboxylic acid]", "IC50": "≤ 0.5"}, {"compound": "CC[C@H]1CC[C@@H](Oc2ccc3ccc([C@H](C)N[C@H]4C[C@H](C(=O)O)C4(C)C)cc3c2C(F)(F)F)CC1", "note": "[Example 118a, (1S,3S)-3-(((S)-1-(7-((cis-4-ethylcyclohexyl)oxy)-8-(trifluoromethyl)naphthalen-2-yl)ethyl)amino)-2,2-dimethylcyclobutanecarboxylic acid]", "IC50": "≤ 0.5"}, {"compound": "CC[C@H]1CC[C@@H](Oc2ccc3ccc(C(C)NC4CC(C(=O)O)C4(C)C)cc3c2C(F)(F)F)CC1", "note": "(stereo partly drawn) [Example 59, 3-((1-(7-((cis-4-ethylcyclohexyl)oxy)-8-(trifluoromethyl)naphthalen-2-yl)ethyl)amino)-2,2-dimethylcyclobutanecarboxylic acid]", "IC50": "≤ 0.1"}, {"compound": "CCC(c1ccc2ccc(O[C@H]3CC[C@@H](CC)CC3)c(C(F)(F)F)c2c1)N1CCC[C@H](CC(=O)O)C1", "note": "(stereo partly drawn) [Example 61, 2-((3R)-1-(1-(7-((cis-4-ethylcyclohexyl)oxy)-8-(trifluoromethyl)naphthalen-2-yl)propyl)piperidin-3-yl)acetic acid]", "IC50": "≤ 0.25"}]}, {"biological_target": "T1, Human ATX protein", "assay": "ATX biochemical FRET assay with FS-3 substrate", "conditions": "IC50, FRET substrate FS-3 2 μM, ATX 1.0 μg/mL, 30 minutes pre-incubation, 2 hours at room temperature", "summary_of_the_method": "as §1", "units": {"IC50": "µM"}, "values": [{"compound": "CC[C@H]1CC[C@@H](Oc2ccc3ccc(CN4C5CCCC4CC(C(=O)O)C5)cc3c2Cl)CC1", "note": "(relative stereo) [Example 49, 9-((8-chloro-7-((cis-4-ethylcyclohexyl)oxy)naphthalen-2-yl)methyl)-9-azabicyclo[3.3.1]nonane-3-carboxylic acid]", "IC50": "≤ 0.1"}, {"compound": "C[C@H]1CC[C@@H](Oc2ccc3ccc(CN4C5CCCC4CC(C(=O)O)C5)cc3c2C(F)F)CC1", "note": "(stereo partly drawn) [Example 86, 9-((8-(difluoromethyl)-7-((cis-4-methylcyclohexyl)oxy)naphthalen-2-yl)methyl)-9-azabicyclo[3.3.1]nonane-3-carboxylic acid]", "IC50": "≤ 0.1"}, {"compound": "CC[C@H]1CC[C@@H](Oc2ccc3ccc(C(C)N4C5CCCC4CC(C(=O)OC)C5)cc3c2C(F)(F)F)CC1", "note": "(stereo partly drawn) [Example 132, methyl 9-(1-(7-((cis-4-ethylcyclohexyl)oxy)-8-(trifluoromethyl)naphthalen-2-yl)ethyl)-9-azabicyclo[3.3.1]nonane-3-carboxylate]", "IC50": "≤ 0.25"}, {"compound": "O=C(O)C1CC2CCC(C1)N2C(=O)c1ccc2ccc(O[C@H]3CC[C@@H](C(F)(F)F)CC3)c(C(F)(F)F)c2c1", "note": "(relative stereo) [Example 23, 8-(8-(trifluoromethyl)-7-((cis-4-(trifluoromethyl)cyclohexyl)oxy)-2-naphthoyl)-8-azabicyclo[3.2.1]octane-3-carboxylic acid]", "IC50": "≤ 0.25"}, {"compound": "CC[C@H]1CC[C@@H](Oc2ccc3ccc([C@H](C)N4C5CCCC4CC(C(=O)O)C5)cc3c2C(F)(F)F)CC1", "note": "(stereo partly drawn) [Example 133a, 9-((S)-1-(7-((cis-4-ethylcyclohexyl)oxy)-8-(trifluoromethyl)naphthalen-2-yl)ethyl)-9-azabicyclo[3.3.1]nonane-3-carboxylic acid]", "IC50": "≤ 0.1"}, {"compound": "C[C@H]1CC[C@@H](Oc2ccc3ccc(C(=O)N4C5CCC4CC(C(=O)O)C5)cc3c2C(F)(F)F)CC1", "note": "(relative stereo) [Example 24, 8-[7-(cis-4-methyl-cyclohexyloxy)-8-trifluoromethyl-naphthalene-2-carbonyl]-8-azabicyclo[3.2.1]octane-3-carboxylic acid]", "IC50": "≤ 0.25"}, {"compound": "O=C(O)C1CC2CCCC(C1)N2C(=O)c1ccc2ccc(O[C@H]3CC[C@@H](C(F)(F)F)CC3)c(C(F)(F)F)c2c1", "note": "(stereo partly shown) [Example 14, 9-[8-trifluoromethyl-7-(4-trifluoromethyl-cyclohexyloxy)-naphthalene-2-carbonyl]-9-aza-bicyclo[3.3.1]nonane-3-carboxylic acid]", "IC50": "≤ 0.1"}, {"compound": "C[C@H]1CC[C@@H](Oc2ccc3ccc(CN4C5CCC4CC(C(=O)O)C5)cc3c2C(F)(F)F)CC1", "note": "(stereo partly drawn) [Example 3, 8-[7-(cis-4-methyl-cyclohexyloxy)-8-trifluoromethyl-naphthalen-2-ylmethyl]-8-aza-bicyclo[3.2.1]octane-3-carboxylic acid]", "IC50": "≤ 0.1"}, {"compound": "C[C@@H](c1ccc2ccc(O[C@H]3CC[C@@H](C(F)(F)F)CC3)c(C(F)(F)F)c2c1)N1C2CCCC1CC(C(=O)O)C2", "note": "(stereo partly drawn) [Example 137a, 9-((S)-1-(8-(trifluoromethyl)-7-((cis-4-(trifluoromethyl)cyclohexyl)oxy)naphthalen-2-yl)ethyl)-9-azabicyclo[3.3.1]nonane-3-carboxylic acid]", "IC50": "≤ 0.1"}, {"compound": "CC(c1ccc2ccc(O[C@H]3CC[C@@H](C)CC3)c(C#N)c2c1)N1C2CCCC1CC(C(=O)O)C2", "note": "(stereo partly drawn) [Example 102, 9-(1-(8-cyano-7-((cis-4-methylcyclohexyl)oxy)naphthalen-2-yl)ethyl)-9-azabicyclo[3.3.1]nonane-3-carboxylic acid]", "IC50": "≤ 0.1"}, {"compound": "C[C@H]1CC[C@@H](Oc2ccc3ccc(CN4C5CCCC4CC(C(=O)O)C5)cc3c2C#N)CC1", "note": "(stereo partly drawn) [Example 98, 9-((8-cyano-7-((cis-4-methylcyclohexyl)oxy)naphthalen-2-yl)methyl)-9-azabicyclo[3.3.1]nonane-3-carboxylic acid]", "IC50": "≤ 0.1"}, {"compound": "O=C(O)C1CC2CCCC(C1)N2Cc1ccc2ccc(O[C@H]3CC[C@@H](C(F)(F)F)CC3)c(Cl)c2c1", "note": "(stereo partly drawn) [Example 27, 9-((8-chloro-7-((cis-4-(trifluoromethyl)cyclohexyl)oxy)naphthalen-2-yl)methyl)-9-azabicyclo[3.3.1]nonane-3-carboxylic acid]", "IC50": "≤ 0.1"}]}]}
